Series [1] deals with T1, EphA4 ligand-binding domain (Homo sapiens, UniProt P54764, C204A).
T1 construct: His-tagged fusion partner of modified pET32a (N, cleaved yes); made in house; host or cells: E. coli Rosetta-gami (DE3)
Put plainly: Isothermal titration calorimetry with EphA4 ligand-binding domain. To be noted: ITC; for Ka / Kb: 10 mM phosphate buffer pH 6.3, 25° C. How it is done: The free Cys176 in this extra tail was mutated to Ala by use of the site-directed mutagenesis kit (Stratagene) to avoid the formation of non-native disulfide bridges.
Titrations were conducted in 10 mM phosphate buffer (pH 6.3) at 25° C. […] The powders of the two compounds were weighted and then dissolved in 10 mM phosphate buffer with the final pH values adjusted to 6.3. The EphA4 receptor at a concentration of 70 μM was placed in a 1.8 ml sample cell while the compounds at a concentration of 2 mM were loaded into a 300 μL syringe. The samples were degassed for 15 min to remove bubbles before the titrations were initiated. Control experiments with the same parameter settings were also performed for the two compounds without EphA4, to subtract the effects due to sample dilution. To obtain thermodynamic binding parameters, the titration data after subtracting the values obtained from the control experiments were fit to a single binding site model using the built-in software ORIGIN version 5.0 (Microcal Software Inc.).

Series [2] relates to HT22 neuronal cells. The series is described as follows: MTT cytotoxicity assay. The class given is cell-based, mouse. To be noted: concentrations up to 400 μM for several days. How it is done:
FIG. 7. HT22 neuronal cells were grown in the presence of the indicated concentrations of compounds 1 and 2 for 1, 2 and 3 days. Only DMSO was used in the “0 μM” sample, as a control. After addition of MTT, absorbance was measured at 570 nm to determine the levels of viable cells present. The histograms show the absorbance obtained for each condition normalized to the absorbance in the absence of the compounds. Error bars represent standard error from 3 measurements.
MTT Assay—The cytotoxicity of the compounds was measured using the 3-(4,5-dimethylthiazol-2-yl)-2,5-diphenyltetrazolium bromide (MTT) colorimetric assay. Cells were seeded in 96-well plates and treated with compounds or DMSO starting 3, 2 or 1 day before they reached 100% confluency. For the assay, MTT (Sigma-Aldrich, St. Louis, Mo.) was added at a final concentration of […] and incubated with the cells for 3 hours. The resulting formazan crystals were then solubilized by addition of 100% DMSO. The absorbance in each well was measured at 570 nm using an ELISA plate reader. The results were expressed as the ratio of the absorbance of the cells treated with the compounds and left untreated.

In series [3] the test system is PC3 cells. Put plainly: PC3 cell retraction assay. The class given is cell-based. On the procedure:
FIGS. 9A-9G. A. PC3 cells pretreated for 15 min with the indicated concentrations of compound 1 or compound 2 were stimulated with 0.5 μg/mL ephrin-A1 Fc (+) or Fc as a control (−) for 20 min in the continued presence of the compounds. EphA2 immunoprecipitates were probed with anti-phosphotyrosine antibody (PTyr) and reprobed for EphA2. C indicates immunoprecipitations performed with control antibodies. B. Histogram showing the levels of EphA2 phosphorylation normalized to the amount of immunoprecipitated EphA2. Error bars indicate standard error from 3 experiments. Receptor phosphorylation levels were compared with those in the ephrin-stimulated cells by one-way ANOVA and Dunnett's post test. *P<0.05 and *P<0.01. C. PC3 cells stimulated with compound 1 as in (A) were stained with rhodamine-phalloidin to label actin filaments and DAPI to label nuclei. DMSO was used as a control (0 μM). D. Histogram showing the mean area of the cells normalized to the value obtained for the Fc stimulated cells. E. Histogram showing the mean percentage of retracting cells. Cells having rounded shape and area less than 20% of the mean value obtained for the Fc stimulated cells were scored as retracting. Error bars in D and E indicate standard error from 3 experiments. F-H. The same experiments as in (C-E) were performed using compound 2. The areas occupied by the cells and the percentage of cell retraction under different conditions were compared to those in the Fc control condition by one-way ANOVA and Dunnett's post test. *P<0.05 and **P<0.01. Scale bars in (C) and (F)=50 μm.
PC3 Cell Retraction Assay—PC3 cells were plated on glass coverslips and grown in RPMI 1640 medium (Mediatech, Inc, Herndon, Va.) with 10% FBS and Pen/Strep. After 17 hours the cells were starved for 3 hours in 0.5% FBS in DMEM and then incubated for 40 min with the compounds or DMSO, before stimulation for 10 min with 0.5 μg/mL of ephrin-A1 Fc or Fc as a control. The cells were fixed in 4% formaldehyde in PBS, permeabilized in 0.5% Triton X-100 in TBS and stained with rhodamine-conjugated phalloidin (Invitrogen, Carlsbad, Calif.) and DAPI. Cells were photographed under a fluorescence microscope and cell area was measured in a blinded manner using ImageJ software. Cells having rounded shape and area equal or below 20% of the area of Fc control-treated cells were considered as retracting.

The text below walks through data of US20100256214A1, “EPH RECEPTOR LIGANDS AND METHODS OF USE” (Burnham Institute for Medical Research, priority 2009, published 2010).

By Kd is commonly meant the equilibrium constant for the complex coming apart. Low values mean higher affinity, high ones lower affinity.

T1 sequence (P54764 29-209 C204A): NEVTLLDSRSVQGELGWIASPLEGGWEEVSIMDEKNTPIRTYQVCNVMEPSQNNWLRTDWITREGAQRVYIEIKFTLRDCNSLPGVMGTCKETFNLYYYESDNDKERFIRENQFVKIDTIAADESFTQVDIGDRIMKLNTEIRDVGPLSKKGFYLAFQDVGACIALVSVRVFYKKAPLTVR

With `Cc1ccc(C)n1-c1ccc(C(=O)O)c(O)c1` [compound 1, 4-(2,5-dimethyl-pyrrol-1-yl)-2-hydroxy-benzoic acid], in series [1], binding was characterised by a dissociation constant (Kd) of 20.4 µM; the Stoichiometry is 1.000 ± 0; the “ΔH, enthalpy change of binding” value is −1,001 cal; the ΔS is given as 18.11 cal/mol*K. In series [1], this compound gave a Ka of 48930 M⁻¹ and a Kb of 20.4 µM. Further, the “toxicity, cell viability by MTT” value in series [2] is recorded as “did not reveal any toxicity”. Further, in series [3], the “cell morphology in the absence of ephrin treatment” value is given as “did not affect”, the “decrease in cell spreading caused by ephrin-A1 Fc” value is on record as “blocked” and the “increase in the percentage of rounded cells caused by ephrin-A1 Fc” value is “blocked”.
For the compound `Cc1ccc(C)n1-c1ccc(O)c(C(=O)O)c1` [compound 2, 5-(2,5 dimethyl-pyrrol-1-yl)-2-hydroxy-benzoic acid], in series [1], the Kd was determined as 26.4 µM; the Stoichiometry is recorded as 1.000 ± 0; the “ΔH, enthalpy change of binding” value was -237 cal; the ΔS came out at 20.15 cal/mol*K. Also, in series [1], the Ka stood at 37850 M⁻¹ and the Kb came out at 26.4 µM. Moreover, the “toxicity, cell viability by MTT” value in series [2] is “did not reveal any toxicity”. In series [3], the “cell morphology in the absence of ephrin treatment” value is “did not affect”, the “decrease in cell spreading caused by ephrin-A1 Fc” value is recorded as “blocked” and the “increase in the percentage of rounded cells caused by ephrin-A1 Fc” value is on record as “blocked”.
